US11633335B2, “Skin cleansing composition” (KAO CORPORATION, priority 2017, dated 2023)

How the values were obtained:
[1] = cited from earlier work
[2] = Keratotic plug detergency (penetration): penetration of the sample into keratotic plugs one minute after contact, digital microscope; set-up: species or system human; settings: contact with the sample for 1 minute; samples of Table 1
Protocol: Keratotic plugs in the nasal region were removed with “Biore Nose Pack (manufactured by Kao Corporation)”, the resulting keratotic plugs on the pack were gently taken out with tweezers. […] Consequently, the sample entered into the gap between the slide glass and the cover glass by capillary phenomenon and was brought into contact with the keratotic plugs. The contact of the keratotic plugs and the sample was recorded with a digital microscope (VHX-5000, manufactured by Keyence Corporation, magnification: 150×), and the penetration of the sample into the keratotic plugs and the collapse state of the keratotic plugs were evaluated after one minute from the contact of the keratotic plugs with the sample. The results of each evaluation are shown in the columns “Keratotic plug detergency (penetration)” and “Keratotic plug detergency (during cleansing)” in Tables. The measurements were performed at 25° C. The penetration was relatively evaluated by criteria with 11 ratings starting from the rating 1 “the sample hardly penetrated into the keratotic plug” to the rating 11 “the sample penetrated to the center of the keratotic plug”. The collapsibility by the detergency against keratotic plug was relatively evaluated by criteria with 11 ratings starting from the rating 1 “almost no change is observed in the external appearance of the keratotic plug” to the rating 11 “peeling or separation is observed in the area from the surface layer to the central portion of the keratotic plug (the initial appearance of the keratotic plug is not retained)”.

[3] = Keratotic plug detergency after washing with water: collapse state one minute after contact with water; set-up: species or system human; settings: sample substituted with water; samples of Table 1
Text: The penetration was relatively evaluated by criteria with 11 ratings starting from the rating 1 “the sample hardly penetrated into the keratotic plug” to the rating 11 “the sample penetrated to the center of the keratotic plug”. The collapsibility by the detergency against keratotic plug was relatively evaluated by criteria with 11 ratings starting from the rating 1 “almost no change is observed in the external appearance of the keratotic plug” to the rating 11 “peeling or separation is observed in the area from the surface layer to the central portion of the keratotic plug (the initial appearance of the keratotic plug is not retained)”. After one minute from the contact of the keratotic plugs with the sample, Kimwipes (registered trademark) was brought into contact with an edge of the cover glass to remove the sample under the cover glass. […] The results of the evaluation are shown in the column “Keratotic plug detergency (during washing with water)” in Table. The measurements were performed at 25° C.

[4] = Keratotic plug detergency (during cleansing): collapse state of keratotic plugs one minute after contact with the sample; set-up: species or system human; settings: contact with the sample for 1 minute; samples of Table 1
Protocol: Keratotic plugs in the nasal region were removed with “Biore Nose Pack (manufactured by Kao Corporation)”, the resulting keratotic plugs on the pack were gently taken out with tweezers.
The resulting keratotic plugs were placed on a slide glass and were covered with a cover glass, and 0.05 mL of a sample was dropwise added to an edge of the cover glass. Consequently, the sample entered into the gap between the slide glass and the cover glass by capillary phenomenon and was brought into contact with the keratotic plugs. The contact of the keratotic plugs and the sample was recorded with a digital microscope (VHX-5000, manufactured by Keyence Corporation, magnification: 150×), and the penetration of the sample into the keratotic plugs and the collapse state of the keratotic plugs were evaluated after one minute from the contact of the keratotic plugs with the sample. The results of each evaluation are shown in the columns “Keratotic plug detergency (penetration)” and “Keratotic plug detergency (during cleansing)” in Tables. The measurements were performed at 25° C.
The penetration was relatively evaluated by criteria with 11 ratings starting from the rating 1 “the sample hardly penetrated into the keratotic plug” to the rating 11 “the sample penetrated to the center of the keratotic plug”. The collapsibility by the detergency against keratotic plug was relatively evaluated by criteria with 11 ratings starting from the rating 1 “almost no change is observed in the external appearance of the keratotic plug” to the rating 11 “peeling or separation is observed in the area from the surface layer to the central portion of the keratotic plug (the initial appearance of the keratotic plug is not retained)”.

[5] = system: insoluble protein (seine protein); assay: Evaluation of effect of suppressing protein aggregation (precipitation of insoluble protein); settings: sample of Table 1
Protocol: Thirty milliliters of a sample and 0.06 g of an insoluble protein (seine protein) were placed in a 35-mL standard glass bottle, and the concentration of the insoluble protein was adjusted to 0.2 mass % (test sample). Separately, a standard sample was prepared by using water instead of the sample and adjusting the concentration of the insoluble protein to 0.2 mass %. Subsequently, the standard glass bottles were sufficiently shaken and stirred up and down (shake width: 15 cm, 20 times at a rate of 5 times for 3 seconds) in a thermostatic chamber of 25° C. and were left to stand for 3 minutes. The precipitation state of the insoluble protein was then visually verified, and the ratio of the amount of the precipitated standard sample to the amount of the precipitated test sample (the height of the precipitate in each standard glass bottle was measured as the precipitation amount), (precipitation amount of standard sample)/(precipitation amount of test sample), was calculated. A higher ratio indicates a higher effect of suppressing protein aggregation.

Compound	solubility in water (in words) [1]	penetration of the sample into keratotic plugs (in words) [2]	collapse of keratotic plugs during washing with water (in words) [3]	collapse of keratotic plugs in contact with the sample, assumption of cleansing (in words) [4]	action on proteins (in words) [5]
CC(C)(N)CO [AMP, 2-amino-2-methyl-1-propanol]	readily dissolved in water	the sample penetrated into keratotic plugs	further accelerating the collapse of keratotic plugs	–	–
NC(CO)(CO)CO [Tris, 2-amino-2-hydroxymethyl-1,3-propanediol]	readily dissolved in water	–	–	–	–
O=P([O-])([O-])O.[Na+].[Na+] [disodium hydrogen phosphate]	–	the sample hardly penetrated into keratotic plugs	the collapse of keratotic plugs did not progress	the collapse of the keratotic plugs did not progress	–
O=C([O-])O.[Na+] [sodium hydrogen carbonate]	–	the sample hardly penetrated into keratotic plugs	the collapse of keratotic plugs did not progress	the collapse of the keratotic plugs did not progress	–
O=P([O-])([O-])[O-].[Na+].[Na+].[Na+] [trisodium phosphate]	–	the sample hardly penetrated into keratotic plugs	the collapse of keratotic plugs did not progress	the collapse of the keratotic plugs did not progress	–
sodium polyoxyethylene (2) lauryl ether sulfate [POE (2) sodium lauryl sulfate]	–	hardly penetrated into the keratotic plugs	–	the collapse of the keratotic plugs did not progress	the action on proteins was strong to dissolve the proteins
